Tests used:
Test in all cases: KINOMEscan competition binding
[1] = target: RPS6KA4 KD2 (human) (UniProt O75676)
[2] = target: CSNK1E (human) (UniProt P49674)
[3] = target: ADCK4 (human) (UniProt Q96D53)
[4] = target: ABL2 (human) (UniProt P42684)
[5] = target: BRAF (human), P15056 [V600E]
[6] = target: EPHA4 (human) (UniProt P54764)
[7] = target: ANKK1 (human) (UniProt Q8NFD2)
[8] = target: MAP3K10 (human) (UniProt Q02779)
[9] = target: GAK (human) (UniProt O14976)
[10] = target: AKT2 (human) (UniProt P31751)
[11] = target: RIPK2 (human) (UniProt O43353)
[12] = target: CDK3 (human) (UniProt Q00526)
[13] = target: SRMS (human) (UniProt Q9H3Y6)
[14] = target: CDK15 (human) (UniProt Q96Q40)
[15] = target: SRC (human) (UniProt P12931)
[16] = target: BMX (human) (UniProt P51813)
[17] = target: JAK1 JH1 catalytic (human) (UniProt P23458)
[18] = target: MUSK (human) (UniProt O15146)
[19] = target: MAP4K3 (human) (UniProt Q8IVH8)
[20] = target: FGR (human) (UniProt P09769)
[21] = target: RIPK1 (human) (UniProt Q13546)
[22] = target: ABL1 (human) (UniProt P00519)
[23] = target: PTK2 (human) (UniProt Q05397)
[24] = target: TSSK1B (human) (UniProt Q9BXA7)
[25] = target: CDK7 (human) (UniProt P50613)
[26] = target: PTK6 (human) (UniProt Q13882)
[27] = target: MYLK2 (human) (UniProt Q9H1R3)
[28] = target: PRKD3 (human) (UniProt O94806)
[29] = target: BRAF (human) (UniProt P15056)
[30] = target: CLK2 (human) (UniProt P49760)
[31] = target: RPS6KA2 KD2 (human) (UniProt Q15349)
[32] = target: EPHA5 (human) (UniProt P54756)
[33] = target: PIK3CA (human), P42336 [H1047Y]
[34] = target: MYLK4 (human) (UniProt Q86YV6)
[35] = target: CDC42BPG (human) (UniProt Q6DT37)
[36] = target: TNK1 (human) (UniProt Q13470)
[37] = target: BLK (human) (UniProt P51451)
[38] = target: TTK (human) (UniProt P33981)
[39] = target: CDK5 (human) (UniProt Q00535)
[40] = target: PRKAA1 (human) (UniProt Q13131)
[41] = target: FGFR4 (human) (UniProt P22455)

Chain of GAK (human) (O14976 whole entry, looked up): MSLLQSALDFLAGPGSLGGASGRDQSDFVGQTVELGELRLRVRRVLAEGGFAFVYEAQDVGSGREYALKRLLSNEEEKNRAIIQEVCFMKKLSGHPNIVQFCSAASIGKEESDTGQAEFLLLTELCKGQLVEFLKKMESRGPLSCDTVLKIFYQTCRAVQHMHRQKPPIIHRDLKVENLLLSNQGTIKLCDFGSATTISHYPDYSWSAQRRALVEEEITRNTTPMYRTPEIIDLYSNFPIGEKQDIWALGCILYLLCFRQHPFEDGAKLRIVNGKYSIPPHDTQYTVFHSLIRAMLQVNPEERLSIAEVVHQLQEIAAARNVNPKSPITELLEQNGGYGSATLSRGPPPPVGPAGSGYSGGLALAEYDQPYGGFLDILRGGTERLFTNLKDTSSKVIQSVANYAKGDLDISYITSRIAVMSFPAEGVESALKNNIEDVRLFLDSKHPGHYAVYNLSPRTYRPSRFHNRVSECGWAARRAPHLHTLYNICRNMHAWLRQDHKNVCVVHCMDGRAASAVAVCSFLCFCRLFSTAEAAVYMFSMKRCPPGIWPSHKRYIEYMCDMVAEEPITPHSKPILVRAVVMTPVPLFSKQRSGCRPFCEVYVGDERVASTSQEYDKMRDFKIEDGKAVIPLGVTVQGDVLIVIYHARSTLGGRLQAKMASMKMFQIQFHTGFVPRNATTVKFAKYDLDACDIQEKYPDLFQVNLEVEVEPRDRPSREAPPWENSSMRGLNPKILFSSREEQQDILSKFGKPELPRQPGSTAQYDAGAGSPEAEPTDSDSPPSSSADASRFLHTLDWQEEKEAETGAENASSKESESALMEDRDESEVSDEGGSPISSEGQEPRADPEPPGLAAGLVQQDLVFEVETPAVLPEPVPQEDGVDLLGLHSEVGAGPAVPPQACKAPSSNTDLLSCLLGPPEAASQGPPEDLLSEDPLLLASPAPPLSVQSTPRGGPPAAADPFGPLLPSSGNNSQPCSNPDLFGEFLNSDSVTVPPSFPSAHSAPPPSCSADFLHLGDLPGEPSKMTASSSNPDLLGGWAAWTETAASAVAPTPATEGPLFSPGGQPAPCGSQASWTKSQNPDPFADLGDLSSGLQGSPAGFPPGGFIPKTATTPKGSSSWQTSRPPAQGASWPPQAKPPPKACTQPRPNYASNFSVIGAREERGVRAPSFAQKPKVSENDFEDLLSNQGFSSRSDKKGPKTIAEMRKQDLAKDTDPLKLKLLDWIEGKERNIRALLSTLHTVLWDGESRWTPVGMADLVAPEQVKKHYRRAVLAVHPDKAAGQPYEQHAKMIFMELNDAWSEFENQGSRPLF
Chain of PTK2 (human) (Q05397 whole entry, looked up): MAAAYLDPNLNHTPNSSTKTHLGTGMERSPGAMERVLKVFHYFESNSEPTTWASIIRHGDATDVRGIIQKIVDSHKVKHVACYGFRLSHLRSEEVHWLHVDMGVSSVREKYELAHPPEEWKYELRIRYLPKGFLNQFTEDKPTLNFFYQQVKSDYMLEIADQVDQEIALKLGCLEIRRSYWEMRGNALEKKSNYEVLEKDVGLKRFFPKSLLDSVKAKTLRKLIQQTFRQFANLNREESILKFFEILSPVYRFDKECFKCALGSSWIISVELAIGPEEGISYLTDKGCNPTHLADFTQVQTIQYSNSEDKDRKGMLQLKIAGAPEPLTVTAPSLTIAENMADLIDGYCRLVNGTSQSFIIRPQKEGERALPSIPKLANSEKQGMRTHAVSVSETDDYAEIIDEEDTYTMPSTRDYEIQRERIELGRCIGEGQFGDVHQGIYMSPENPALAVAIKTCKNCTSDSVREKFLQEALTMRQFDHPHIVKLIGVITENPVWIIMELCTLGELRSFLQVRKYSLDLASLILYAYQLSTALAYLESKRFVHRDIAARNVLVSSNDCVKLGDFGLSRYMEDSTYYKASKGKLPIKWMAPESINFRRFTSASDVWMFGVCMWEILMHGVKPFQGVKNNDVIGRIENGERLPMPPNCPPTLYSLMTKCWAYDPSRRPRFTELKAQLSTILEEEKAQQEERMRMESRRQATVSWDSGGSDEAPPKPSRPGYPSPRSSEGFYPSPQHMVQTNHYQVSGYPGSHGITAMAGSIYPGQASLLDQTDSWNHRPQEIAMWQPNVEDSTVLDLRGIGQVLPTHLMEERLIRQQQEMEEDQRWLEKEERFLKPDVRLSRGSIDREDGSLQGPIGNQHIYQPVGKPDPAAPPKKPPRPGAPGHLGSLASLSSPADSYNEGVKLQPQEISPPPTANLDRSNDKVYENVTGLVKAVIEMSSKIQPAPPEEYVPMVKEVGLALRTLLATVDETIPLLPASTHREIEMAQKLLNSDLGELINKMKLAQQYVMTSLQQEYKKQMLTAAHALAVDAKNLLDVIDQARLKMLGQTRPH
Chain of SRC (human) (P12931 whole entry, looked up): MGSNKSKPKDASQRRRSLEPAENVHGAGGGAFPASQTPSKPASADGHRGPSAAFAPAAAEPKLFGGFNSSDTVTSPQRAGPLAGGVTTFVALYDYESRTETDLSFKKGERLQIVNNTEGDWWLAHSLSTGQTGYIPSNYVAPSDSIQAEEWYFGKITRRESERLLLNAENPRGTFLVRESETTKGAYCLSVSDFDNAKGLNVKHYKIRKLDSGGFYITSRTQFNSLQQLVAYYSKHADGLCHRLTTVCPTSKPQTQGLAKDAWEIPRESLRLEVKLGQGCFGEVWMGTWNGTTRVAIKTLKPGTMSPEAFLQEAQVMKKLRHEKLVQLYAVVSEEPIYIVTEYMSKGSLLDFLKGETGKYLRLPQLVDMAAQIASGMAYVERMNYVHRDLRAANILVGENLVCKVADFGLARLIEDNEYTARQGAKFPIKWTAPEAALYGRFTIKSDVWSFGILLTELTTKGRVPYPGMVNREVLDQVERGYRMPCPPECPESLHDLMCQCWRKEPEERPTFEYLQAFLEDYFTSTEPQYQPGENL
Chain of ADCK4 (human) (Q96D53 whole entry, looked up): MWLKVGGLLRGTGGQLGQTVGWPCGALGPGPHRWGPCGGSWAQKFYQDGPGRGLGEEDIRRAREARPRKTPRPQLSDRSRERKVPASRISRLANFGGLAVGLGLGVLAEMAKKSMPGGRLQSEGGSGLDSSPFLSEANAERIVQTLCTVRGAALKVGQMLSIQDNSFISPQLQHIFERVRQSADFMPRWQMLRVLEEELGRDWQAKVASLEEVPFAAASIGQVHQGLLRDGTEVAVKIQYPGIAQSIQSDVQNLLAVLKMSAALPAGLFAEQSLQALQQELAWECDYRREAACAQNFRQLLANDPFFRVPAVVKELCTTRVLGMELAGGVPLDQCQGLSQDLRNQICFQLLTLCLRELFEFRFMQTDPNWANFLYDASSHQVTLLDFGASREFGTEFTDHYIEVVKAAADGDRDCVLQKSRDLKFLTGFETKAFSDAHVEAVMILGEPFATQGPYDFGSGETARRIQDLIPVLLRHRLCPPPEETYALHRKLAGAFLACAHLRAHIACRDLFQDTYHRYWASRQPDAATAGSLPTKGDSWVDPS
Chain of MYLK2 (human) (Q9H1R3 whole entry, looked up): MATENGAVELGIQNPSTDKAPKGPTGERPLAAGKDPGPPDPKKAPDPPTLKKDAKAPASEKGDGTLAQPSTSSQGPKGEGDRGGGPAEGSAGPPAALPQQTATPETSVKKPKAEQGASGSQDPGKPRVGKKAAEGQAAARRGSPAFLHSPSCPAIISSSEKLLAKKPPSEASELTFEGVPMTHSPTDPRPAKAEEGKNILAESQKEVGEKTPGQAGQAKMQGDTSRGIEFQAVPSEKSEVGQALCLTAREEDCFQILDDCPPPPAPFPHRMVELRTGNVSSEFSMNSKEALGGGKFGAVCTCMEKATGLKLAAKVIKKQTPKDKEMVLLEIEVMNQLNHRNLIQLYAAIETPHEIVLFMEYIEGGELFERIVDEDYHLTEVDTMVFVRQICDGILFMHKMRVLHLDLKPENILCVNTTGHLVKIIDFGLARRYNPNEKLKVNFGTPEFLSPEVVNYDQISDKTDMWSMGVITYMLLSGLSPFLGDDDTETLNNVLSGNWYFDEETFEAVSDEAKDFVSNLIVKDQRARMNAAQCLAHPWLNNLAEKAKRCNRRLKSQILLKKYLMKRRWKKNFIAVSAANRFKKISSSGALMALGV
Chain of PRKAA1 (human) (Q13131 whole entry, looked up): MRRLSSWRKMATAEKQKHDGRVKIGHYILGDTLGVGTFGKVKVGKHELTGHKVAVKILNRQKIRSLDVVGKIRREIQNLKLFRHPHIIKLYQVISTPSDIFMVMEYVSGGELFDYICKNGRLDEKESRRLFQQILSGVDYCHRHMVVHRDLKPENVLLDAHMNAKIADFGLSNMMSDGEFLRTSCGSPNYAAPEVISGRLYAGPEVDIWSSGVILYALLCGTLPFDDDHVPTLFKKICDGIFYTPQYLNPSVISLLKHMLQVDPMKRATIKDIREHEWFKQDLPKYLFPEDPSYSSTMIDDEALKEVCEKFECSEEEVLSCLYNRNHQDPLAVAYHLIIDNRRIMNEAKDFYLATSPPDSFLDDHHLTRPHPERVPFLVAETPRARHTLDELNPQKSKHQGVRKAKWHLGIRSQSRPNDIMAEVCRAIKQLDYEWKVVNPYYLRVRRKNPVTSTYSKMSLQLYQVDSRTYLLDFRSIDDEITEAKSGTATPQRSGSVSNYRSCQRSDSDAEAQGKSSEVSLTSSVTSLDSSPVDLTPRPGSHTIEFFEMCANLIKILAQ
Chain of CDK15 (human) (Q96Q40 whole entry, looked up): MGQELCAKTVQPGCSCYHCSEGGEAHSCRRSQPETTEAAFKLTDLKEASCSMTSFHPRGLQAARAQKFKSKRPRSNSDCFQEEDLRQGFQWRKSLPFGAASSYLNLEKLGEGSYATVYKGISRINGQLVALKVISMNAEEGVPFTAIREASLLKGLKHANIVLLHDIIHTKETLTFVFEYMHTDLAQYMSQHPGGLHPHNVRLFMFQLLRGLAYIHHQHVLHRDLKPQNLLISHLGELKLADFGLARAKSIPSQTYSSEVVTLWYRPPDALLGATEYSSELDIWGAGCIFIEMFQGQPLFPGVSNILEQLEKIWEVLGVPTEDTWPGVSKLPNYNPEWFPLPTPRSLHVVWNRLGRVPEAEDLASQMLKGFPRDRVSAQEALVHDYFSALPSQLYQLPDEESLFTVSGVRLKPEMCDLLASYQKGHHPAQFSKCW

Kd [1]: 36000 nM
Kd [2]: 16000 nM
Kd [3]: 26000 nM
Kd [4]: 14 nM
Kd [5]: 14 nM
Kd [6]: 31 nM
Kd [7]: 4600 nM
Kd [8]: 5600 nM
Kd [9]: 2300 nM
Kd [10]: 8400 nM
Kd [11]: 16 nM
Kd [12]: 26000 nM
Kd [13]: 3000 nM
Kd [14]: 430 nM
Kd [15]: 99 nM
Kd [16]: 820 nM
Kd [17]: 29000 nM
Kd [18]: 34 nM
Kd [19]: 2300 nM
Kd [20]: 110 nM
Kd [21]: 3200 nM
Kd [22]: 2.8 nM
Kd [23]: 7500 nM
Kd [24]: 26000 nM
Kd [25]: 520 nM
Kd [26]: 200 nM
Kd [27]: 7500 nM
Kd [28]: 6300 nM
Kd [29]: 36 nM
Kd [30]: 21000 nM
Kd [31]: 33000 nM
Kd [32]: 56 nM
Kd [33]: 37000 nM
Kd [34]: 12000 nM
Kd [35]: 4400 nM
Kd [36]: 150 nM
Kd [37]: 7.6 nM
Kd [38]: 1700 nM
Kd [39]: 11000 nM
Kd [40]: 8700 nM
Kd [41]: 450 nM
SMILES: COc1cc2ncnc(Oc3cccc(NC(=O)Nc4cc(C(C)(C)C(F)(F)F)on4)c3)c2cc1OC

Source: the kinase profiling compilation of Christmann-Franck et al. (2016)
